Assay results published in ChEMBL document CHEMBL1139998, “Design, synthesis, and binding studies of bidentate Zn-chelating peptidic inhibitors of glyoxalase-I” (Bioorg Med Chem Lett, 2007).

Biological target: T1, Glyoxalase I (Saccharomyces cerevisiae S288c, UniProt P50107)
T1 sequence (P50107 whole entry): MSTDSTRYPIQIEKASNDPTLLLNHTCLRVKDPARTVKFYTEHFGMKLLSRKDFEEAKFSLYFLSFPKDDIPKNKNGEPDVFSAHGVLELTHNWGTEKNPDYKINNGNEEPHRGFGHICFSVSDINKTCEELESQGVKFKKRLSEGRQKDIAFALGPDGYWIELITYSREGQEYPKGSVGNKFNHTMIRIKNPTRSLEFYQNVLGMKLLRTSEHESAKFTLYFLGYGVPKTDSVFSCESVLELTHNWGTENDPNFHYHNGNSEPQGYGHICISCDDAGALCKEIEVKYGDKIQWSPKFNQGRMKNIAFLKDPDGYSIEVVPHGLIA
Experiment: Inhibition of yeast glyoxalase 1

SMILES	Ki [µM]
N[C@@H](CCC(=O)N[C@@H](CCC(=O)CC(=O)OCc1ccc(Br)cc1)C(=O)NCC(=O)O)C(=O)O	66.9
COC(=O)CC(=O)CC[C@H](NC(=O)CC[C@H](N)C(=O)O)C(=O)NCC(=O)O	112
